Results on two compounds are retold here after patent US20240254087A1, “SELECTIVE, PARTIAL, AND ARRESTIN-BIASED 5-HT2A AGONISTS WITH UTILITY IN VARIOUS DISORDERS” (Saint Joseph's University, priority 2021, published 2024).

For experiment [1], the system named is mice. The experiment in a line: PCP-induced locomotor hyperactivity. The format is in vivo, mouse. Here is the method: (A). DOI, a hallucinogen and 5-HT2A agonist, was administered IP 10 min after SC administration of vehicle or test drug. A and then HTR activity was assessed for 30 minutes. *p<0.001, significant difference vs. vehicle (B). Vehicle or the NMDA receptor antagonist PCP (5 mg/kg) was injected IP 10 min after SC administration of vehicle or 25N-NB1-Nap (16), and then the mice were placed in the test chambers 10 min later for a 60-min assessment of locomotor activity. (C). […] Mice were treated with vehicle or M100907 (0.03 mg/kg SC) 10 min prior to vehicle or PCP (5 mg/kg IP): animals were placed in the test chambers 10 min after treatment with PCP. Animals were tested for 60 min. *p<0.01 vs. vehicle: ^#p<0.01 vs. PCP alone.
Male C57BL/6J mice (6-8 weeks old) from Jackson Labs (Bar Harbor, ME, USA) were used for the behavioral experiments. The mice were housed on a reversed light-dark cycle (lights on at 1900 h, off at 0700 h) in an AAAC-approved vivarium at the University of California San Diego. Mice were housed up to four per cage in a climate-controlled room and with food and water provided ad libitum except during behavioral testing. Testing was performed between 1000 and 1800 h (during the dark phase of the light-dark cycle). The studies were conducted in accordance with National Institutes Health (NIH) guidelines and were approved by the University of California San Diego Institutional Animal Care and Use Committee.
Edelfosine, DOI, R—(−)-DOI, and PCP were injected IP (5 mL/kg): 25N—NB and its derivatives were injected SC (5 mL/kg or 10 mL/kg): YM-254,890 was injected into the lateral ventricle (2 μL) over 1 min.
The mouse behavioral pattern monitor (BPM) was used to assess locomotor activity. Each mouse BPM chamber (San Diego Instruments, San Diego, CA, USA) is a transparent Plexiglas box with an opaque 30×60 cm floor, enclosed in a ventilated isolation box. The position of the mouse in x.y coordinates is recorded by a grid of 12×24 infrared photobeams located 1 cm above the floor. A second row of 16 photobeams (parallel to the long axis of the chamber, located 2.5 cm above the floor) is used to detect rearing behavior. Holepoking behavior is detected by 11 1.4-cm holes that are situated in the walls (3 holes in each long wall, 2 holes in each short wall) and the floor ([…]); each hole is equipped with an infrared photobeam. The status of each photobeam is sampled every 55 ms and recorded for offline analysis. Locomotor activity was quantified as distance traveled, which was analyzed in 20-min blocks using a three-way ANOVA, with pretreatment and treatment as between subject variables and time as a within-subject variable. Tukey's studentized range method was used for post hoc comparisons.

Experiment [2] has as its system male C57BL/6J mice. Put plainly: Tolerance: DOI-induced HTR after 5 days repeated treatment. The format is in vivo, mouse. As to conditions: 5 days SC: 25N-N1-Nap 20, DOI 10, pimavanserin 1 mg/kg/day. Here is the method:
The mice were allowed to recover from the magnet implantation surgeries for at least 1 week prior to behavioral testing. HTR experiments were conducted in a well-lit room, and the mice were allowed to habituate to the room for at least 1 h prior to testing. Head twitches was assessed in a 12-cm diameter glass cylinder surrounded by a magnetometer coil. Coil voltage was low-pass filtered (2 kHz), amplified, and digitized (20-kHz sampling rate) using a Powerlab/8SP with LabChart v 7.3.2 (ADInstruments, Colorado Springs, CO, USA). […] HTR counts were analyzed using one-way ANOVAs. Dunnett's test was used for post hoc comparisons.

Experiment [3] deals with humans. As to conditions: intranasal or sublingual routes; cited from earlier work.

With `COc1cc([N+](=O)[O-])c(OC)cc1CCNCc1cccc2ccccc12` [25N-N-1-Nap (16), [2-(2,5-dimethoxy-4-nitrophenyl)ethyl][(naphthalen-1-yl)methyl]amine], the “Effect on baseline locomotor activity” value in experiment [1] (3 mg/kg SC) is “had no effect”. The “Effect on PCP-induced locomotor hyperactivity” value in experiment [1] (PCP 5 mg/kg IP, 25N-N1-Nap 3 mg/kg SC, M100907 0.03 mg/kg SC) is “antagonized”. In addition, in experiment [2], the “Ability of DOI (1 mg/kg IP) to induce the HTR after repeated daily treatment” value is given as “reduced significantly”.

For the compound `COc1cc([N+](=O)[O-])c(OC)cc1CCNCc1ccccc1OC` [25N-NBOMe (4), [2-(2,5-dimethoxy-4-nitrophenyl)ethyl] [(2-methoxyphenyl)methyl]amine], in experiment [3], the “Active dose in humans” value is 0.3 to 0.8 mg.
